Measurements reported in patent US20090005436A1, “Substituted Aminoalkyl- and Amidoalkyl-Benzopyran Derivatives” (NEWRON PHARMACEUTICALS S.p.A., priority 2005, published 2009).
pIC50: −log10 of the molar value.

Tests used:
[1] = molecular target: T1, MAO-A (Rattus norvegicus, UniProt P21396); experiment: In vitro MAO-A enzyme activity radioenzymatic assay (14C-serotonin substrate), rat brain crude mitochondrial fraction
T1 sequence (P21396 1-526): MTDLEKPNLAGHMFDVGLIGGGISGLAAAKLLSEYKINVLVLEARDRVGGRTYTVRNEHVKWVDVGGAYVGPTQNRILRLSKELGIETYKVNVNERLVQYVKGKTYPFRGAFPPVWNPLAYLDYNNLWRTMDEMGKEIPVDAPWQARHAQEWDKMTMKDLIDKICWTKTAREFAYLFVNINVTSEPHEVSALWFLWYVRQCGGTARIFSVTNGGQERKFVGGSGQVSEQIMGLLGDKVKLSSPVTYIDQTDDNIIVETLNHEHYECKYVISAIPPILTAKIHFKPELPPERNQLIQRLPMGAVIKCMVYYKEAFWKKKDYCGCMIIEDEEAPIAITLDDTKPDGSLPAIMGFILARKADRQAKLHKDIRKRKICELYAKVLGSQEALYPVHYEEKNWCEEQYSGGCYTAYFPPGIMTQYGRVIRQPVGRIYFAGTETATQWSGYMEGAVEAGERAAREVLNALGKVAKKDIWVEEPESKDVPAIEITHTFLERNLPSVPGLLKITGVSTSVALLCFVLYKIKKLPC

[2] = molecular target: T2, MAO-B (Rattus norvegicus, UniProt P19643); experiment: In vitro MAO-B enzyme activity radioenzymatic assay (14C-phenylethylamine substrate), rat brain crude mitochondrial fraction
T2 sequence (P19643 1-520): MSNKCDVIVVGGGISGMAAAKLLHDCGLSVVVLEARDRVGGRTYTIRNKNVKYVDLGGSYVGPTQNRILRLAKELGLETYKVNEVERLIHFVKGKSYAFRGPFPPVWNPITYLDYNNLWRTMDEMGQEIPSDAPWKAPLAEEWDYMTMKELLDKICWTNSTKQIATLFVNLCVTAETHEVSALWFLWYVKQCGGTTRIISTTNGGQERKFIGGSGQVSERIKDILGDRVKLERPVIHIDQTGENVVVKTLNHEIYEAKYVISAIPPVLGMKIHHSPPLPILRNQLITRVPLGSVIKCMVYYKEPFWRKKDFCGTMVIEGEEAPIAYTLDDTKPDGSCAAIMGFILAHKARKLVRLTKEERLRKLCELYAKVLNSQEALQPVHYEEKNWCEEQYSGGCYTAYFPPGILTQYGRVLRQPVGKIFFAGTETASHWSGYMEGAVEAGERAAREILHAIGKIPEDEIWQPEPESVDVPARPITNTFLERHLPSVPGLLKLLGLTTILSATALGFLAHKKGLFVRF

Row | pIC50 [1] | pIC50 [2] | SMILES
1 | 4.50 | 6.60 | NCCc1cc(=O)oc2cc(OCc3cccc(Cl)c3)ccc12 [4-(2-Aminoethyl)-7-(3-chlorobenzyloxy)-2H-chromen-2-one]
2 | 4.13 | 6.52 | CNCCc1cc(=O)oc2cc(OCc3cccc(Cl)c3)ccc12 [4-[2-(Methylamino)ethyl]-7-(3-chlorobenzyloxy)-2H-chromen-2-one]
3 | 4.15 | 7.30 | NC(=O)Cc1cc(=O)oc2cc(OCc3cccc(F)c3)ccc12 [4-[(Aminocarbonyl)methyl]-7-(3-fluorobenzyloxy)-2H-chromen-2-one]
4 | 4.82 | 7.10 | CN(C)C(=O)CC1=CCOc2cc(OCc3ccccc3)ccc21 [4-[(Dimethylaminocarbonyl)methyl]-7-benzyloxy-2H-chromene]
5 | 5.85 |  | NNC(=O)Cc1cc(=O)oc2cc(OCc3ccccc3)ccc12 [4-[(Hydrazinocarbonyl)methyl]-7-benzyloxy-2H-chromen-2-one]
6 | < 4.00 | 7.40 | CN(C)C(=O)Cc1cc(=O)oc2cc(OCc3cccc(Cl)c3)ccc12 [4-[Dimethylaminocarbonyl)methyl]-7-(3-chlorobenzyloxy)-2H-chromen-2-one]

Row | SMILES | pIC50 [1] | pIC50 [2]
7 | NCc1cc(=O)oc2cc(OCc3cccc(Cl)c3)ccc12 [4-Aminomethyl-7-(3-chlorobenzyloxy)-2H-chromen-2-one] | 5.72 | 8.00
8 | CNCc1cc(=O)oc2cc(OCc3cccc(Cl)c3)ccc12 [4-[(Methylamino)methyl]-7-(3-chlorobenzyloxy)-2H-chromen-2-one] | 5.23 | 8.00
9 | CNCc1cc(=O)oc2cc(OCc3cccc(F)c3)ccc12 [4-[(Methylamino)methyl]-7-(3-fluorobenzyloxy)-2H-chromen-2-one] | 4.87 | 7.70
